# Experimental data taken from patent publication US11981658B2, “Substituted aminopyridine compounds as EGFR inhibitors” (YUHAN CORPORATION, priority 2021, dated 2024).
# Like-named read-outs stand apart in the source and are kept apart here.
# How the values were obtained:
# EGFR L858R/T790M/C797S = EGFR L858R/T790M/C797S (Homo sapiens, UniProt P00533, C797S/L858R/T790M); assay: Biochemical EGFR kinase inhibition assay (Lance Ultra TR-FRET), triple mutant L858R/T790M/C797S
# Outline: (§1)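 In this biochemical assay, phosphorylation after a one-hour room-temperature reaction was detected with europium-labelled anti-phosphopeptide antibody at 2 nM final concentration.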
# EGFR Del19/C797S = EGFR Del19/C797S (Homo sapiens, UniProt P00533, C797S/DEL746-750); assay: Biochemical EGFR kinase inhibition assay (Lance Ultra TR-FRET), double mutant del19/C797S
# EGFR Del19/C797S, sequence (P00533 with tags, fused parts or gaps DEL746-750/C797S): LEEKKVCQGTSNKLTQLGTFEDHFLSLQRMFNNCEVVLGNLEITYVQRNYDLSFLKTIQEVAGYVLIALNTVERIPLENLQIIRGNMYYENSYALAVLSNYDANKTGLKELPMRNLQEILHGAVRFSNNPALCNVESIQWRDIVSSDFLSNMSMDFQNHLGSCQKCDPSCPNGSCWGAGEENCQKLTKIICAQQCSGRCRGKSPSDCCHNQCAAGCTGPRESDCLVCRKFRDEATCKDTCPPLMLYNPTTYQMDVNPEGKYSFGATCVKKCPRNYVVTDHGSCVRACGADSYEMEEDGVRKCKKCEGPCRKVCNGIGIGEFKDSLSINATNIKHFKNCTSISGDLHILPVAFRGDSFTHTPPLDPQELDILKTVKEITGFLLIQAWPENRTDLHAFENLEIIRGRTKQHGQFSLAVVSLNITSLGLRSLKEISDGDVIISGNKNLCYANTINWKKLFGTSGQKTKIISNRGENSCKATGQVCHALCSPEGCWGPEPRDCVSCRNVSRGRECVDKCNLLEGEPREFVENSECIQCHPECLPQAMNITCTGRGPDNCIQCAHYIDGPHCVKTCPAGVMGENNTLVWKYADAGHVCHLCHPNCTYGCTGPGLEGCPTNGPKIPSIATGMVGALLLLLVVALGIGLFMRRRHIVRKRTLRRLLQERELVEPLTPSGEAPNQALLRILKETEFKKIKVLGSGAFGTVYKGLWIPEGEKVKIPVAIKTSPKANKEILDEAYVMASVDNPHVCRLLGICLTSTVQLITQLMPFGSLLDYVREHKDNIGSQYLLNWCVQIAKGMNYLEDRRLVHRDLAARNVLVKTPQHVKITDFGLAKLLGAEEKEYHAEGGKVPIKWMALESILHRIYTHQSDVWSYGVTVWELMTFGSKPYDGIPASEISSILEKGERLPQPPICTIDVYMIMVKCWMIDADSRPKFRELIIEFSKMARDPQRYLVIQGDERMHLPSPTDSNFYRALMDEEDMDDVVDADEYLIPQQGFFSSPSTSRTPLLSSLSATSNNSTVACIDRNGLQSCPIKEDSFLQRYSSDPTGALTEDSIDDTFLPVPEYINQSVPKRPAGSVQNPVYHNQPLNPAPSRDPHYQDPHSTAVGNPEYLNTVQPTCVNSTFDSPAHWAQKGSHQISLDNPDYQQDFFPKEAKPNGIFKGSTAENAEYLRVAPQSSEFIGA
# Outline: as §1
# EGFR L858R/C797S = EGFR L858R/C797S (Homo sapiens, UniProt P00533, C797S/L858R); assay: Biochemical EGFR kinase inhibition assay (Lance Ultra TR-FRET), double mutant L858R/C797S
# EGFR L858R/C797S, sequence (P00533 25-1210 C797S/L858R): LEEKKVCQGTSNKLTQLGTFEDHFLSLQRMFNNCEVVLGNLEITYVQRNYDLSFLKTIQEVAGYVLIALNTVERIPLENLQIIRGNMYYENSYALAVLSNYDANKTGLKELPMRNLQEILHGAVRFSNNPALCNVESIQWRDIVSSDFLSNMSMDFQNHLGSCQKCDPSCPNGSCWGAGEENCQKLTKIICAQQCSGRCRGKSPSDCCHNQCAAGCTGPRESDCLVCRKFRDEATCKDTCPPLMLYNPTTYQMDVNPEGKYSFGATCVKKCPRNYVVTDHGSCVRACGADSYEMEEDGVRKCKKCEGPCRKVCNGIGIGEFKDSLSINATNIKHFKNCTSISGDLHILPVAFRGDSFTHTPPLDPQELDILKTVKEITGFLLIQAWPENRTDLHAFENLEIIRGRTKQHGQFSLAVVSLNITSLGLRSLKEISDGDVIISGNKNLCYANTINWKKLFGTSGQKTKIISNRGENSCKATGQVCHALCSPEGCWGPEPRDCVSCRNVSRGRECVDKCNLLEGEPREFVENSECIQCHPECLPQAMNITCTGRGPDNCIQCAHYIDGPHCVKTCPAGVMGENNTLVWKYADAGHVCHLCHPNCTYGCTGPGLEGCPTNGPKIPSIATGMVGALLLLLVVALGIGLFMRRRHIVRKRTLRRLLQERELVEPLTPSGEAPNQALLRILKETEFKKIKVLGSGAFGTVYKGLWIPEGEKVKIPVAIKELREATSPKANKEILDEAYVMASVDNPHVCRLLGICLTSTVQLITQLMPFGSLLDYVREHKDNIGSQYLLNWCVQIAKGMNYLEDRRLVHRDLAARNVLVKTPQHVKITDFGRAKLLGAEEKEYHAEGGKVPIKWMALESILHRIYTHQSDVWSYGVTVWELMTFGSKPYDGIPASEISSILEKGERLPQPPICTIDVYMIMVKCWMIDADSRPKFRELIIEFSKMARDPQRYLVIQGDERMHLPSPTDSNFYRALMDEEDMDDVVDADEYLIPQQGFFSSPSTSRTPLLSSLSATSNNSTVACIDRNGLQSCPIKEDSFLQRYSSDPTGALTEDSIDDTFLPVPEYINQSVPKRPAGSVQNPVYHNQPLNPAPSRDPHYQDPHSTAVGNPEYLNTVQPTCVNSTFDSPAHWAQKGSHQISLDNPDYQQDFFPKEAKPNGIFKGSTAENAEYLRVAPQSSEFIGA
# Outline: as §1
# EGFR Del19/T790M/C797S = EGFR Del19/T790M/C797S (Homo sapiens, UniProt P00533, C797S/DEL746-750/T790M); assay: Biochemical EGFR kinase inhibition assay (Lance Ultra TR-FRET), triple mutant del19/T790M/C797S
# EGFR Del19/T790M/C797S, sequence (P00533 with tags, fused parts or gaps DEL746-750/T790M/C797S): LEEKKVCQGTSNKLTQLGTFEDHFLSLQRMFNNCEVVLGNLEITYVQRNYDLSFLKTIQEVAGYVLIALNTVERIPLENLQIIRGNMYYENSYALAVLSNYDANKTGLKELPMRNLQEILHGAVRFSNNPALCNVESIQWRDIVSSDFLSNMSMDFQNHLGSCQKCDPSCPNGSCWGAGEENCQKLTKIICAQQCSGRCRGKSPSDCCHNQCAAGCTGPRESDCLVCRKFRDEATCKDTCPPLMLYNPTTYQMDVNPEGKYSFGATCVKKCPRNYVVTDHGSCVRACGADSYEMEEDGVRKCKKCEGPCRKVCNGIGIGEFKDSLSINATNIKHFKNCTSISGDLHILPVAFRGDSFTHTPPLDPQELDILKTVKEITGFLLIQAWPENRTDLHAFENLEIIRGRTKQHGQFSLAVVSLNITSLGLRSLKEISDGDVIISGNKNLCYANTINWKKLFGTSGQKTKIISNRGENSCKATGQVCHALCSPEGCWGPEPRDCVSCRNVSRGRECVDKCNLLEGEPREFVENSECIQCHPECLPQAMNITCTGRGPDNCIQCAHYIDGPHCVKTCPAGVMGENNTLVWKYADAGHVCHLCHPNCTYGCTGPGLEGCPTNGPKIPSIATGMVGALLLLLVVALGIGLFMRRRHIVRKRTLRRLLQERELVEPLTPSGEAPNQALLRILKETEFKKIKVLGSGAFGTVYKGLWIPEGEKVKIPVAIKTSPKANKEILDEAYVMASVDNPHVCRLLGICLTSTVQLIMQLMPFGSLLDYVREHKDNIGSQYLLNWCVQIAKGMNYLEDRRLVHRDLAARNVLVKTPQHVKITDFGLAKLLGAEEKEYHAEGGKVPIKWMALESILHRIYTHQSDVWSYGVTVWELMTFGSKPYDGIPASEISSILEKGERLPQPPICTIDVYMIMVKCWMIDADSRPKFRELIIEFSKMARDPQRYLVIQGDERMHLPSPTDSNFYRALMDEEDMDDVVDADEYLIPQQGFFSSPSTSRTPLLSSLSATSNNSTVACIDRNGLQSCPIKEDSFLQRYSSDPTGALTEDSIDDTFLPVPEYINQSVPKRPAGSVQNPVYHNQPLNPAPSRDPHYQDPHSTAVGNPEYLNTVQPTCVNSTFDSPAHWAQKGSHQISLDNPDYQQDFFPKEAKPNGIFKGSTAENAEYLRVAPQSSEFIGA
# Outline: as §1
# EGFR wildtype (WT) = EGFR wildtype (WT) (Homo sapiens, UniProt P00533); assay: Biochemical EGFR kinase inhibition assay (Lance Ultra TR-FRET), wildtype
# Outline: as §1
# [1] = IC50 L858R/T790M/C797S (nM), 100 μM ATP
# [2] = Km ATP, read-out: IC50 L858R/T790M/C797S (nM), Km ATP
# [3] = IC50 Del19/C797S (nM), 100 μM ATP
# [4] = Km ATP, read-out: IC50 Del19/C797S (nM), Km ATP
# [5] = IC50 L858R/C797S (nM), 100 μM ATP
# [6] = Km ATP, read-out: IC50 L858R/C797S (nM), Km ATP
# [7] = IC50 Del19/T790M/C797S (nM), 100 μM ATP
# [8] = Km ATP, read-out: IC50 Del19/T790M/C797S (nM), Km ATP
# [9] = Km ATP, read-out: IC50 WT (nM), Km ATP
# [10] = ATP at Km, read-out: IC50 L858R/T790M/C797S (nM), Km ATP
# [11] = ATP at Km, read-out: IC50 Del19/C797S (nM), Km ATP
# [12] = ATP at Km, read-out: IC50 L858R/C797S (nM), Km ATP
# [13] = ATP at Km, read-out: IC50 Del19/T790M/C797S (nM), Km ATP
# [14] = ATP at Km, read-out: IC50 WT (nM), Km ATP
# [15] = Km ATP, read-out: IC50 L858R/T790M/C797S (nM) Km ATP
# [16] = Km ATP, read-out: IC50 Del19/C797S (nM) Km ATP
# [17] = Km ATP, read-out: IC50 L858R/C797S (nM) Km ATP
# [18] = Km ATP, read-out: IC50 Del19/T790M/C797S (nM) Km ATP
# [19] = Km ATP, read-out: IC50 WT (nM) Km ATP
# EGFR L858R/T790M/C797S, sequence (P00533 25-1210 T790M/C797S/L858R): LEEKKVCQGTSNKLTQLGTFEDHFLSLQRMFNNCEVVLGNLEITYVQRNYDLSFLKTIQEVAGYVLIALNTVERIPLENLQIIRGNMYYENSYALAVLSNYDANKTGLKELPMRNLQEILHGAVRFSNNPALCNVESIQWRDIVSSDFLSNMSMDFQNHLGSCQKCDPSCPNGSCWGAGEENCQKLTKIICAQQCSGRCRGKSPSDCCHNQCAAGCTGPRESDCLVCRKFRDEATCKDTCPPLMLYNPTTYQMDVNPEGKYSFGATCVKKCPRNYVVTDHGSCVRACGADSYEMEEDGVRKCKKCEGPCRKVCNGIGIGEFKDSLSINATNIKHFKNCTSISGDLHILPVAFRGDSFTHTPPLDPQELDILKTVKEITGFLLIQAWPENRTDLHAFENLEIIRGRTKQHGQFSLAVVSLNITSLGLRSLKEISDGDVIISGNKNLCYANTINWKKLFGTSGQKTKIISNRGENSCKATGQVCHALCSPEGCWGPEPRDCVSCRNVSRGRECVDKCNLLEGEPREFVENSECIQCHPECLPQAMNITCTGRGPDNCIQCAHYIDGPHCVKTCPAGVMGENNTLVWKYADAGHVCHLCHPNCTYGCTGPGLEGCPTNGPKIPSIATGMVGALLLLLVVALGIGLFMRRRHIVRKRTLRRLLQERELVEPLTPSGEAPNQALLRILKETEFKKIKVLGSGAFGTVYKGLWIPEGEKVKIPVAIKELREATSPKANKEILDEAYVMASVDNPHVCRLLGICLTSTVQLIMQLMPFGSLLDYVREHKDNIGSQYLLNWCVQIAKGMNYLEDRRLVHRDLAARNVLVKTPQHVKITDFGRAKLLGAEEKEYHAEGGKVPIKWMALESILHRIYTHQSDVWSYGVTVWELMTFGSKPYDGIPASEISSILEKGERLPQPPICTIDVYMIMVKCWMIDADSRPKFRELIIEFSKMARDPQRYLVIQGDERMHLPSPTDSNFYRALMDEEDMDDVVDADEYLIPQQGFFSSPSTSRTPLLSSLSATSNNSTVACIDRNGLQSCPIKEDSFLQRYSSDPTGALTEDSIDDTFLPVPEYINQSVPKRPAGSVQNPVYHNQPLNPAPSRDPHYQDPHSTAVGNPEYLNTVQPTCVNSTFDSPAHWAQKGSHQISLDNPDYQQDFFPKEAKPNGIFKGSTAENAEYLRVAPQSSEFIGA
Structure (SMILES),IC50 (EGFR L858R/T790M/C797S; [1]) [nM],IC50 (EGFR L858R/T790M/C797S; [2]) [nM],IC50 (EGFR Del19/C797S; [3]) [nM],IC50 (EGFR Del19/C797S; [4]) [nM],IC50 (EGFR L858R/C797S; [5]) [nM],IC50 (EGFR L858R/C797S; [6]) [nM],IC50 (EGFR Del19/T790M/C797S; [7]) [nM],IC50 (EGFR Del19/T790M/C797S; [8]) [nM],"IC50 (EGFR wildtype (WT); IC50 WT (nM), 100 μM ATP) [nM]",IC50 (EGFR wildtype (WT); [9]) [nM],IC50 (EGFR L858R/T790M/C797S; [10]) [nM],IC50 (EGFR Del19/C797S; [11]) [nM],IC50 (EGFR L858R/C797S; [12]) [nM],IC50 (EGFR Del19/T790M/C797S; [13]) [nM],IC50 (EGFR wildtype (WT); [14]) [nM],IC50 (EGFR L858R/T790M/C797S; [15]) [nM],IC50 (EGFR Del19/C797S; [16]) [nM],IC50 (EGFR L858R/C797S; [17]) [nM],IC50 (EGFR Del19/T790M/C797S; [18]) [nM],IC50 (EGFR wildtype (WT); [19]) [nM]
"CN(C)CCC1CCN(c2cc(Nc3ccnc(-c4cnn(S(=O)(=O)C5CC5)c4)n3)ncc2C#CC2CCO[C@H]2C(F)(F)F)CC1 (stereo partly drawn) [Example 419, 2-(1-(Cyclopropylsulfonyl)-1H-pyrazol-4-yl)-N-(4-(4-(2-(dimethylamino)ethyl)piperidin-1-yl)-5-(((2R)-2-(trifluoromethyl)tetrahydrofuran-3-yl)ethynyl)pyridin-2-yl)pyrimidin-4-amine]",1.5,0.4,4.8,3.9,97.5,7.1,1,1.1,> 10000,31,,,,,,,,,,
"O=S(=O)(C1CC1)n1cc(-c2nccc(Nc3cc(NCC4CCC(O)CC4)c(C#CC4CCCO4)cn3)n2)cn1 (centres unmarked) [Example 375, (1 r,4r)-4-(((2-((2-(1-(Cyclopropylsulfonyl)-1H-pyrazol-4-yl)pyrimidin-4-yl)amino)-5-((tetrahydrofuran-2-yl)ethynyl)pyridin-4-yl)amino)methyl)cyclohexan-1-ol]",8,1.3,34.8,13.1,1920,82,3.2,2.5,> 10000,122,,,,,,,,,,
"O=S(=O)(C1CC1)n1cc(-c2nccc(Nc3cc(N[C@H]4CCC[C@H](O)C4)c(C#Cc4ccc(CN5CCOCC5)cc4)cn3)n2)cn1 [Example 161, (1 S,3S)-3-((2-((2-(1-(Cyclopropylsulfonyl)-1H-pyrazol-4-yl)pyrimidin-4-yl)amino)-5-((4-(morpholinomethyl)phenyl)ethynyl)pyridin-4-yl)amino)cyclohexan-1-ol]",10.6,,38.2,,547,,8.8,,> 10000,,3.2,25.5,21.6,5.5,650,,,,,
"CC1(CO)CCN(c2cc(Nc3ccnc(-c4cnn(S(=O)(=O)C5CC5)c4)n3)ncc2C#Cc2ccccc2)CC1 [Example 256, (1-(2-((2-(1-(Cyclopropylsulfonyl)-1H-pyrazol-4-yl)pyrimidin-4-yl)amino)-5-(phenylethynyl)pyridin-4-yl)-4-methylpiperidin-4-yl)methanol]",17.7,,7.6,,67.3,,20.6,,> 10000,,,,,,,,,,,
"Cn1ccc(C#Cc2cnc(Nc3ccnc(-c4cnn(S(=O)(=O)C5CC5)c4)n3)cc2N[C@H]2CC[C@@H](O)CC2)n1 [Example 106, (1s,4s)-4-((2-((2-(1-(Cyclopropylsulfonyl)-1H-pyrazol-4-yl)pyrimidin-4-yl)amino)-5-((1-methyl-1H-pyrazol-3-yl)ethynyl)pyridin-4-yl)amino)cyclohexan-1-ol]",1.6,,15.1,,274,,1.1,,> 10000,,,,,,,0.6,12.5,6.1,1,95.5
"CS(=O)(=O)N1CCC(C#Cc2cnc(Nc3ccnc(-c4cnn(S(=O)(=O)C5CC5)c4)n3)cc2NC2CCC(CO)CC2)C1 (centres unmarked) [Example 397, ((1s,4s)-4-((2-((2-(1-(Cyclopropylsulfonyl)-1H-pyrazol-4-yl)pyrimidin-4-yl)amino)-5-((1-(methylsulfonyl)pyrrolidin-3-yl)ethynyl)pyridin-4-yl)amino)cyclohexyl)methanol]",1.3,0.5,1.5,0.7,31.3,1.5,0.9,1.5,> 10000,16.9,,,,,,,,,,

# Stronger by IC50 (EGFR L858R/T790M/C797S; [1]), values ahead:
IC50 (EGFR L858R/T790M/C797S; [1]) [nM],IC50 (EGFR L858R/T790M/C797S; [2]) [nM],IC50 (EGFR Del19/C797S; [3]) [nM],IC50 (EGFR Del19/C797S; [4]) [nM],IC50 (EGFR L858R/C797S; [5]) [nM],IC50 (EGFR L858R/C797S; [6]) [nM],IC50 (EGFR Del19/T790M/C797S; [7]) [nM],IC50 (EGFR Del19/T790M/C797S; [8]) [nM],"IC50 (EGFR wildtype (WT); IC50 WT (nM), 100 μM ATP) [nM]",IC50 (EGFR wildtype (WT); [9]) [nM],IC50 (EGFR L858R/T790M/C797S; [10]) [nM],IC50 (EGFR Del19/C797S; [11]) [nM],IC50 (EGFR L858R/C797S; [12]) [nM],IC50 (EGFR Del19/T790M/C797S; [13]) [nM],IC50 (EGFR wildtype (WT); [14]) [nM],IC50 (EGFR L858R/T790M/C797S; [15]) [nM],IC50 (EGFR Del19/C797S; [16]) [nM],IC50 (EGFR L858R/C797S; [17]) [nM],IC50 (EGFR Del19/T790M/C797S; [18]) [nM],IC50 (EGFR wildtype (WT); [19]) [nM],Structure (SMILES)
1.1,0.1,4.4,2.5,16.7,2.9,0.5,0.3,> 10000,7.2,,,,,,,,,,,"O=S(=O)(C1CC1)n1cc(-c2nccc(Nc3cc(N4CCC5(CCCO5)CC4)c(C#Cc4ncc(CN5CCOCC5)cn4)cn3)n2)cn1 [Example 366, 2-(1-(Cyclopropylsulfonyl)-1H-pyrazol-4-yl)-N-(5-((5-(morpholinomethyl)pyrimidin-2-yl)ethynyl)-4-(1-oxa-8-azaspiro[4.5]decan-8-yl)pyridin-2-yl)pyrimidin-4-amine]"
0.4,0.1,1.5,1.4,14,1.5,0.3,0.2,4710,9.2,,,,,,,,,,,"CC1(CO)CCN(c2cc(Nc3ccnc(-c4cnn(S(=O)(=O)C5CC5)c4)n3)ncc2C#CC2(O)CCCOC2)CC1 (centres unmarked) [Example 357, 3-((6-((2-(1-(Cyclopropylsulfonyl)-1H-pyrazol-4-yl)pyrimidin-4-yl)amino)-4-(4-(hydroxymethyl)-4-methylpiperidin-1-yl)pyridin-3-yl)ethynyl)tetrahydro-2H-pyran-3-ol]"
0.5,,0.8,,1.3,,0.7,,212,,,,,,,0.3,0.5,0.3,0.7,1.6,"CN(C)CCCn1cc(C#Cc2cnc(Nc3ccnc(-c4cnn(S(=O)(=O)C5CC5)c4)n3)cc2N2CCC(C)(CO)CC2)cn1 [Example 120, (1-(2-((2-(1-(Cyclopropylsulfonyl)-1H-pyrazol-4-yl)pyrimidin-4-yl)amino)-5-((1-(3-(dimethylamino)propyl)-1H-pyrazol-4-yl)ethynyl)pyridin-4-yl)-4-methylpiperidin-4-yl)methanol]"
0.4,,2.4,,12.2,,0.3,,6180,,0.1,1.1,1.1,0.3,9.6,,,,,,"CN(C)C[C@H]1CC[C@@H](Nc2cc(Nc3ccnc(-c4cnn(S(=O)(=O)C5CC5)c4)n3)ncc2C#Cc2cnn(C)c2)CC1 [Example 312, N^2-(2-(1-(Cyclopropylsulfonyl)-1H-pyrazol-4-yl)pyrimidin-4-yl)-N^4-((1s,4s)-4-((dimethylamino)methyl)cyclohexyl)-5-((1-methyl-1H-pyrazol-4-yl)ethynyl)pyridine-2,4-diamine]"
1.2,,1.3,,3.2,,1.5,,> 10000,,0.4,0.8,0.7,1.1,3,,,,,,"CC1(CO)CCN(c2cc(Nc3ccnc(-c4cnn(S(=O)(=O)C5CC5)c4)n3)ncc2C#Cc2ccc(C(=O)N3CCOCC3)cc2)CC1 [Example 263, (4-((6-((2-(1-(Cyclopropylsulfonyl)-1H-pyrazol-4-yl)pyrimidin-4-yl)amino)-4-(4-(hydroxymethyl)-4-methylpiperidin-1-yl)pyridin-3-yl)ethynyl)phenyl)(morpholino)methanone]"
0.9,,3,,23.1,,0.2,,8440,,,,,,,,,,,,"CC1(CO)CCN(c2cc(Nc3ccnc(-c4cnn(S(=O)(=O)C5CC5)c4)n3)ncc2C#CCN2CCS(=O)(=O)CC2)CC1 [Example 289, 4-(3-(6-((2-(1-(Cyclopropylsulfonyl)-1H-pyrazol-4-yl)pyrimidin-4-yl)amino)-4-(4-(hydroxymethyl)-4-methylpiperidin-1-yl)pyridin-3-yl)prop-2-yn-1-yl)thiomorpholine 1,1-dioxide]"
